This note sets out measurements from PubChem BioAssay (NCI).

“And” between values parts separate entries of the source, which are not always exact repeats. Equal entries are not always repeated.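 Step 1: Grow cells in 96-well plates. Step 2: Expose to compound for 48 hours at 5 concentrations. Step 3: Interpolate endpoints linearly; if unreached, use highest concentration. At the GI50, growth is halved. TGI is the concentration that stops growth completely.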

What all share (test): DTP human tumour cell line panel, 48 h
Assay [1] concerns HT29 colon.
Assay [2] has as its system NCI-H226 lung.
Assay [3] concerns SR leukemia.
Assay [4] relates to SF-268 CNS.
For assay [5], the system named is NCI-H23 lung.
In assay [6] the test system is SNB-75 CNS.
Assay [7] concerns ACHN renal.
In assay [8] the test system is COLO 205 colon.
Assay [9] has as its system NCI-H522 lung.
In assay [10] the test system is SK-MEL-5 melanoma.

`O=C(CC(=O)c1ccccc1)C(=O)NC12CC3CC(CC(C3)C1)C2`: the total growth inhibition concentration (TGI) in [1], in assay [2], in [3], in [4], in assay [5] and in assay [6] was more than 100 µM each time. Besides, the TGI – broadly, the concentration giving total growth inhibition – in [7] is more than 100 µM; in assay [8], more than 64.8 µM; in assay [9], more than 100 µM; in [10], more than 100 µM.
For the compound `Cc1ccccc1NC(=O)c1cc2ccccc2cc1O`, the GI50 (commonly the concentration at which growth is held to half of that of the control) in assay [1] was 7.54 µM; in [2], 3.59 µM; in assay [3], 4.84 µM; in assay [4], 3.68 µM; in [5], 2.36 µM; in assay [6], 2.43 µM. Besides, the GI50 in assay [7] is 3.17 µM; in [8] it was 13.8 µM; in assay [9] it was 2.62 µM; in assay [10], 2.38 µM. In addition, the TGI in [1] is more than 100 µM; in assay [2], more than 100 µM; in assay [3] it was more than 100 µM; in [4], more than 100 µM; in assay [5], 6.6 µM; in assay [6], 44.9 µM. In addition, the total growth inhibition concentration (TGI) is 10.4 µM in assay [7], 28.6 µM in [8], 9.39 µM in assay [9] and 5.58 µM in assay [10].
`COc1cc2c3cc1Oc1c(OC)c(OC)cc4c1C(Cc1ccc(cc1)Oc1cc(ccc1O)CC3N(C)CC2)N(C)CC4` (configuration not stated): the concentration for total growth inhibition (TGI) in assay [1] is 20.9 µM and 14.1 µM; in assay [2] it was 40.6 µM and 37.5 µM; in assay [3] it was 8.98 µM and 7.5 µM; in [4], 44.6 µM and 24.7 µM; in assay [5], 48.1 µM and 26.3 µM; in assay [6], 25.3 µM and 23.8 µM. Further, the TGI in [7] is 46.1 µM and 15.8 µM; in [8], 23 µM and 11.3 µM; in assay [9], 14.2 µM and 20.5 µM; in [10], 18.7 µM and 3.72 µM. Moreover, the GI50 in assay [7] is 14.5 µM and 4.72 µM; in assay [8], 11 µM and 1.52 µM; in assay [9] it was 1.57 µM and 4.86 µM; in [10], 6.2 µM and 1.81 µM.
As for `CCc1nc(N)nc(N)c1C#CC(C)c1cc(-c2ccnc(C)c2)c2oc(C)nc2c1` (configuration not stated), the GI50 in [1] is less than 0.01 µM; in assay [2], 0.913 µM; in [3], less than 0.0342 µM; in assay [4], less than 0.01 µM; in assay [5], less than 0.01 µM; in [6] it was 0.278 µM. For the same compound, the GI50 is less than 0.01 µM in [7], 0.0246 µM in assay [8], 0.0222 µM in assay [9] and less than 0.01 µM in assay [10]. The total growth inhibition concentration (TGI) in [1] is 7.74 µM; in [2] it was 11.2 µM; in assay [3] it was more than 53.9 µM; in assay [4] it was 6.02 µM; in assay [5], 5.31 µM; in assay [6] it was 3.78 µM. In addition, the TGI in assay [7] is 11 µM; in assay [8], 6.9 µM; in assay [9] it was 9.66 µM; in assay [10] it was 1.49 µM.
For the compound `CC(=O)n1c(-c2ccc(Cl)c(Cl)c2)cn(-c2ccc(Cl)cc2)c1=O`, the GI50 in assay [1] is 57.7 µM; in assay [2], 24.3 µM; in assay [3], 16.1 µM; in assay [4], 23.5 µM; in assay [6] it was 13.6 µM; in assay [7], 27.8 µM. Moreover, the figures for the GI50 in [8], in assay [9] and in assay [10] were 53 µM, 19.3 µM and 32.2 µM, respectively. The TGI in [1] is more than 100 µM; in assay [2], 74.5 µM; in assay [3], 33 µM; in [4], more than 100 µM; in assay [6] it was 31.4 µM; in assay [7], more than 100 µM. In addition, the total growth inhibition concentration (TGI) in assay [8] was more than 100 µM; in assay [9], 53.6 µM; in assay [10], more than 100 µM.
Consider `Oc1ccc(Cn2c(-c3ccc(O)cc3)nc3ccccc32)cc1`, for which the total growth inhibition concentration (TGI) in [1] is more than 100 µM; in assay [2] it was more than 100 µM; in assay [3], more than 31.6 µM; in assay [4] it was more than 100 µM; in assay [5], more than 100 µM; in assay [6], more than 100 µM. Also, the TGI in assay [7], in [8], in assay [9] and in [10] was more than 100 µM throughout.
With `CCOC(=O)/C=C1\Oc2ccccc2C1(C)O` (configuration not stated), the TGI in assay [1], in assay [2], in assay [3], in assay [4], in assay [5] and in assay [6] was more than 100 µM in each case. Moreover, the TGI in assay [7], in [8], in [9] and in [10] was more than 100 µM throughout.
Turning to `NCCSC(C[N+](=O)[O-])c1ccccc1Cl` (configuration not stated), the GI50 is 3.15 µM in [1]; 2.28 µM in [2]; 3.05 µM in assay [3]; 2.79 µM in assay [4]; 3.37 µM in [5]; 4.22 µM in [6]. Also, the GI50 is 9.85 µM in [7], 2.14 µM in [8], 24.9 µM in assay [9] and 3.03 µM in [10]. In addition, the TGI was 10.9 µM in [1]; 5.55 µM in assay [2]; more than 100 µM in [3]; 8.53 µM in [4]; 12 µM in assay [5]; 16.9 µM in assay [6]. Besides, the total growth inhibition concentration (TGI) in assay [7] was 22.1 µM; in [8] it was 4.35 µM; in [9], more than 56.1 µM; in [10] it was 10.1 µM.
For the compound `CCCC(CCC)C(=O)OCC1(CO)C/C(=C\c2ccc(C(F)(F)F)cc2)C(=O)O1` (configuration not stated), the GI50 in assay [1] was 14.4 µM; in assay [2] it was 14.1 µM; in assay [3], 14.9 µM; in assay [4], 16.2 µM; in [5] it was 15.8 µM; in assay [6] it was 12.1 µM. Besides, the GI50 in assay [7] is 10.5 µM; in [8], 0.577 µM; in assay [9], 15.1 µM; in [10], 0.948 µM. The total growth inhibition concentration (TGI) is 30.6 µM in [1]; 33.1 µM in assay [2]; 31.1 µM in assay [3]; 33.3 µM in [4]; 32.1 µM in [5]; 26.8 µM in assay [6]. Besides, the TGI in assay [7] worked out at 22.6 µM; in assay [8], 9.37 µM; in assay [9], 31.4 µM; in assay [10], 19.6 µM.
